In ChEMBL document CHEMBL1201862, “PubChem BioAssay data set” (2004):
Blank lines part the entries; values can stand above or below the compound they belong to. The source made the active and inactive calls.

Key:
HEK293 [1] = assay: HEK293T cell viability loss, resazurin readout – resazurin fluorescence, cytotoxicity control for NF-kB activator project, SAR follow-up (AID 493251); assay type: functional, cell-based; conditions: Homo sapiens
Jurkat = assay: SAR Analysis of small molecule inhibitors of T-cell specific antigen receptor-induced NF-kB activation in a Jurkat cell line using a luminescence assay - Set 2. [Related pubchem assays (depositor defined):AID435003, AID435012, AID465]; assay type: functional, cell-based; conditions: Homo sapiens
HEK293 [2] = assay: SAR Analysis of small molecule inhibitors of T-cell specific antigen receptor-induced NF-kB activation in a HEK-293T cell line using a luminescence assay - Set 2. [Related pubchem assays (depositor defined):AID435003, AID435012, AID489026]; assay type: functional, cell-based; conditions: Homo sapiens
Hexokinase-1 = biological target: T1, Hexokinase-1 (Homo sapiens, UniProt P19367); assay: hexokinase 1 activity inhibitors, potency – biochemical, set 2, resazurin fluorescence coupled readout, selectivity assay for HKDC1 inhibitor project, SAR follow-up (AID 588356); assay type: functional
T1 sequence (P19367 whole entry): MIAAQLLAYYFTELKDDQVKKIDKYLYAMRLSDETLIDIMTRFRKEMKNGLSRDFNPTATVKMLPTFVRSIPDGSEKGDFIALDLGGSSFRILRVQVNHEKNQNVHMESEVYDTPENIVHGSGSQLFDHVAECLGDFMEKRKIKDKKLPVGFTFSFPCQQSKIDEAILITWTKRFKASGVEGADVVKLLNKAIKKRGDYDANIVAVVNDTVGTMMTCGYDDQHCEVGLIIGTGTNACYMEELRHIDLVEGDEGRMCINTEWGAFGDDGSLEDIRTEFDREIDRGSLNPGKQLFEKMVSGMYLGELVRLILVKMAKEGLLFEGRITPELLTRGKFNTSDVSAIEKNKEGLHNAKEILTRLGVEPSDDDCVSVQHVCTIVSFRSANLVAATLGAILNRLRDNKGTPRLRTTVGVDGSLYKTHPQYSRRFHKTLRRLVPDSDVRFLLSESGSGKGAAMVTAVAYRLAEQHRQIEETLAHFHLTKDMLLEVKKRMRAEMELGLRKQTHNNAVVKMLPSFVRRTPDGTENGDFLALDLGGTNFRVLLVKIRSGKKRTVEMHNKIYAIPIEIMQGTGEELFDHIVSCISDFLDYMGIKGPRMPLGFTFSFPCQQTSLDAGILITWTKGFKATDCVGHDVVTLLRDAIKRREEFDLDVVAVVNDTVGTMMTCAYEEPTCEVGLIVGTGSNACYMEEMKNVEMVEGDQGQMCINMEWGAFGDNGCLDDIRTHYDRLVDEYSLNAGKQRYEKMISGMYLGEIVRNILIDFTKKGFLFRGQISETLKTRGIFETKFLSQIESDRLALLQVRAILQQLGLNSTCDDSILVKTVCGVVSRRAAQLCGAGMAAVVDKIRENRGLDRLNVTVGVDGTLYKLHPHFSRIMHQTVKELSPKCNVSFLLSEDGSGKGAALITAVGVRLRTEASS

Hexokinase HKDC1 = biological target: T2, Hexokinase HKDC1 (Homo sapiens, UniProt Q2TB90); assay: analog inhibition of human HKDC1 activity – biochemical, set 2, SAR follow-up (AID 588355); assay type: functional
T2 sequence (Q2TB90 whole entry): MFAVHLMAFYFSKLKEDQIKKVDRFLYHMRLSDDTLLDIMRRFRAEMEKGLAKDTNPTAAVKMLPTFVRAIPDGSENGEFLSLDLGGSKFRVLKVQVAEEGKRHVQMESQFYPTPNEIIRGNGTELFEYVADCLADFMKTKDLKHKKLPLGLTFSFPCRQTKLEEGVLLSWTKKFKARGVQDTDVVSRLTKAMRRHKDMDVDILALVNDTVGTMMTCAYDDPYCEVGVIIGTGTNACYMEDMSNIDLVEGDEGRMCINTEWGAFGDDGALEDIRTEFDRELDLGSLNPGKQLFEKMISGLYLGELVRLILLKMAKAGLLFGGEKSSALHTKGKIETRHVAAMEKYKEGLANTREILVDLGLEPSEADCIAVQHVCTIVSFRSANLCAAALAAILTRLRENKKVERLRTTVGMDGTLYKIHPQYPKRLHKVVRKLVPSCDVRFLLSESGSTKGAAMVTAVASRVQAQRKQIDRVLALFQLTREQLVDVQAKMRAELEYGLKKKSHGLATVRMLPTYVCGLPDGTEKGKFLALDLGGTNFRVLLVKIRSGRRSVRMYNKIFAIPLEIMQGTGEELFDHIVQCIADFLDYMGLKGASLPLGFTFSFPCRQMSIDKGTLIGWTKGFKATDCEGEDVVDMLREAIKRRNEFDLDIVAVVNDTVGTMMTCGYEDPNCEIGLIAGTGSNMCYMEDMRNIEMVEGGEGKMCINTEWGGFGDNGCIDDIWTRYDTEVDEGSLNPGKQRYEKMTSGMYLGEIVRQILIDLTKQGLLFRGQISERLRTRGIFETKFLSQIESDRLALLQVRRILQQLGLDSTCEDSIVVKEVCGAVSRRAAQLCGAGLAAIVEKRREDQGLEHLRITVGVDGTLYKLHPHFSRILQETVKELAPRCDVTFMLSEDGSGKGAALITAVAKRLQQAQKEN

[3] = biological target: Peroxisome proliferator-activated receptor gamma/Nuclear receptor corepressor 2 (Homo sapiens, UniProt P37231+Q9Y618); assay: Counterscreen for NR2E3 inverse agonists: TR-FRET-based biochemical high throughput dose response assay to identify inverse agonists of the interaction between peroxisome proliferator-activated receptor gamma (PPARg) and nuclear receptor co-repressor 2 (NCOR2).; assay type: functional
Sequence of Peroxisome proliferator-activated receptor gamma/Nuclear receptor corepressor 2 (P37231 whole entry): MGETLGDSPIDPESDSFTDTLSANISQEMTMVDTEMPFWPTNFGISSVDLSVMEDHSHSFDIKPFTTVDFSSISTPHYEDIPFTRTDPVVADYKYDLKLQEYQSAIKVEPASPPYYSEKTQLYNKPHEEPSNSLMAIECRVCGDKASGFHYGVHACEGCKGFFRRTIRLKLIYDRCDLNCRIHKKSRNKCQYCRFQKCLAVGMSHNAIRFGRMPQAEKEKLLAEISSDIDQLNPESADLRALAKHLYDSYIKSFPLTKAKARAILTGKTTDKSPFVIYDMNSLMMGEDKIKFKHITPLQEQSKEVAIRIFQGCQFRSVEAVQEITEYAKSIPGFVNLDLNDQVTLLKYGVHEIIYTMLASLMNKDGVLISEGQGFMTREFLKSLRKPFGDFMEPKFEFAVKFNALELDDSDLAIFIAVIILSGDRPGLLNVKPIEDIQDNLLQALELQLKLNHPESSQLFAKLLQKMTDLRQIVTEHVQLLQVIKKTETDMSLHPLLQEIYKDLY
Sequence of Peroxisome proliferator-activated receptor gamma/Nuclear receptor corepressor 2 (Q9Y618 whole entry): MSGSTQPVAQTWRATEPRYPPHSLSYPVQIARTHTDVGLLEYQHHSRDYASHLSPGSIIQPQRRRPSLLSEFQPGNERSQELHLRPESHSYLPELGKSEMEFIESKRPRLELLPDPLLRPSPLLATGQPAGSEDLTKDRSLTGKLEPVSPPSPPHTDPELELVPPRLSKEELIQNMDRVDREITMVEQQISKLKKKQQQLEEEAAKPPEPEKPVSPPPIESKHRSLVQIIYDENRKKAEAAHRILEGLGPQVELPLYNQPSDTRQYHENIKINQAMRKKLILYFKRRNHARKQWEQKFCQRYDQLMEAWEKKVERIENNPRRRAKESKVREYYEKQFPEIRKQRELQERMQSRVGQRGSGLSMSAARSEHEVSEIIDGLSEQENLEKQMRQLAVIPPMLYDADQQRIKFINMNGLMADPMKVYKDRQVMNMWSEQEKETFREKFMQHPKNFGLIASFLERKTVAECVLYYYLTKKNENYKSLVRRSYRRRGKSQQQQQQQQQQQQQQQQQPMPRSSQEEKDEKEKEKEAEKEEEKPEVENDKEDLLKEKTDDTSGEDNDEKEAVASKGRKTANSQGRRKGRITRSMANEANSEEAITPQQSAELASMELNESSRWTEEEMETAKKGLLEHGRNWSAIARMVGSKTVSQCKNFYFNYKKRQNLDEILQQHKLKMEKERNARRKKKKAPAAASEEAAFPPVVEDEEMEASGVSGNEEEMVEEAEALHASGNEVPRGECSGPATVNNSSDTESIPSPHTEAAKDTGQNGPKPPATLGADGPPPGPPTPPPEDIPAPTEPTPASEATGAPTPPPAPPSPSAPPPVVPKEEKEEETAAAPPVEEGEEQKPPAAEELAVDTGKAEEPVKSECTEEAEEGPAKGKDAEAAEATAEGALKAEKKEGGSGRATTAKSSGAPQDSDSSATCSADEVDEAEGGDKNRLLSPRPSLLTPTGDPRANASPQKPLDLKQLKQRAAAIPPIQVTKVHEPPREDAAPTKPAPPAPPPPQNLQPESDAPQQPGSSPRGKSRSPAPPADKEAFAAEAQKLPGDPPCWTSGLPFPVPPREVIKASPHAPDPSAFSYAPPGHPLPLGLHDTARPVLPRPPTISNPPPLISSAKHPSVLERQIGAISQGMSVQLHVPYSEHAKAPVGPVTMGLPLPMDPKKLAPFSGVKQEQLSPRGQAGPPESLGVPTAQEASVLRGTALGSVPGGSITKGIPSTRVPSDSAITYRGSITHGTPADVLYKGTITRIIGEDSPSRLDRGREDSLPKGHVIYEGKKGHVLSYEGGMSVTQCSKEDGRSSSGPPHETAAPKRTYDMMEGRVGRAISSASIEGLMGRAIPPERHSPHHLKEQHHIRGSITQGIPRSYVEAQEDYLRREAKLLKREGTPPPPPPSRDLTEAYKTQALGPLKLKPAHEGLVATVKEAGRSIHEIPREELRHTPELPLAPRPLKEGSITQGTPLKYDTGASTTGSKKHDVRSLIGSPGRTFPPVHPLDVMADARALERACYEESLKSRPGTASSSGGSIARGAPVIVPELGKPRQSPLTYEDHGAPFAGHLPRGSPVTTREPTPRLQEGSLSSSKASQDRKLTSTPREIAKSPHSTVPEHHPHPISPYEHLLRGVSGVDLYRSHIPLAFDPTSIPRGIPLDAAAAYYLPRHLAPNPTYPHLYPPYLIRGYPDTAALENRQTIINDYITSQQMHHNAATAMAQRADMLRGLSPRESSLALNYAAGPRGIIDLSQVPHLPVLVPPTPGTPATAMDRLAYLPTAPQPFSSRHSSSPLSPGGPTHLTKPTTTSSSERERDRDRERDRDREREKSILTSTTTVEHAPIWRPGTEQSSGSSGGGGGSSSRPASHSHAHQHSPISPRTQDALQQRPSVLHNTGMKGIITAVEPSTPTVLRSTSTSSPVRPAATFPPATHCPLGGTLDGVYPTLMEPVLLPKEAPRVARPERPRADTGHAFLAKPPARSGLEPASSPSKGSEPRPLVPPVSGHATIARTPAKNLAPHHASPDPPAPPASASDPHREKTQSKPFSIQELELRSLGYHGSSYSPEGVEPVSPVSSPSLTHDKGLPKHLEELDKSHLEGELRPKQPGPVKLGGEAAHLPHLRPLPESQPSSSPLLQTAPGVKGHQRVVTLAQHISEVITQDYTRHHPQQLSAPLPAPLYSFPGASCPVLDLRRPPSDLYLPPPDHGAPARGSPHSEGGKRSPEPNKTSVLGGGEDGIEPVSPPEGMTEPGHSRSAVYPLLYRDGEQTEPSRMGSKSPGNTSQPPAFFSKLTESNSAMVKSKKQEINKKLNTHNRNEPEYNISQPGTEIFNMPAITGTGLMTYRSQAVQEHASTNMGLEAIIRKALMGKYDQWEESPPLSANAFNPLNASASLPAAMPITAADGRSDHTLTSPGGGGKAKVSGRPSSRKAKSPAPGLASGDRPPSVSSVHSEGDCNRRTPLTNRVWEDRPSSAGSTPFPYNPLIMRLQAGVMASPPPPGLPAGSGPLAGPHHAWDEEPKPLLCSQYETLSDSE

[4] = biological target: Photoreceptor-specific nuclear receptor (Homo sapiens, UniProt Q9Y5X4); assay: ligands suppressing NR2E3 nuclear receptor activity – biochemical, TR-FRET, dose response (AID 463256); assay type: functional
Sequence of Photoreceptor-specific nuclear receptor (Q9Y5X4 whole entry): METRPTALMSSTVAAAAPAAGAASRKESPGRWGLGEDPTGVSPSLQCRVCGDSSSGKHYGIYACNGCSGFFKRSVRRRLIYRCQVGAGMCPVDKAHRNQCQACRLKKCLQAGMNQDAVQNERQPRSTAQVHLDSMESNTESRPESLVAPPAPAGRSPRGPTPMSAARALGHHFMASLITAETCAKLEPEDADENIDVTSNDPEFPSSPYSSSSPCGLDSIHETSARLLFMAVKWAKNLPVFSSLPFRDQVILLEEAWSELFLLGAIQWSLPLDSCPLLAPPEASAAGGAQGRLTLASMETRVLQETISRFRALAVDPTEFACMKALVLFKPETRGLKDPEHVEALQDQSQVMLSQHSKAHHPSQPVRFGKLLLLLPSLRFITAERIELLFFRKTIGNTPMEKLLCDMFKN

[5] = biological target: Beta-adrenergic receptor kinase 1 (Homo sapiens, UniProt P25098); assay: blockers of aptamer binding to GRK2 – biochemical, flow cytometry beads, FAM-aptamer, powder set 1, dose response (AID 588720)
Sequence of Beta-adrenergic receptor kinase 1 (P25098 whole entry): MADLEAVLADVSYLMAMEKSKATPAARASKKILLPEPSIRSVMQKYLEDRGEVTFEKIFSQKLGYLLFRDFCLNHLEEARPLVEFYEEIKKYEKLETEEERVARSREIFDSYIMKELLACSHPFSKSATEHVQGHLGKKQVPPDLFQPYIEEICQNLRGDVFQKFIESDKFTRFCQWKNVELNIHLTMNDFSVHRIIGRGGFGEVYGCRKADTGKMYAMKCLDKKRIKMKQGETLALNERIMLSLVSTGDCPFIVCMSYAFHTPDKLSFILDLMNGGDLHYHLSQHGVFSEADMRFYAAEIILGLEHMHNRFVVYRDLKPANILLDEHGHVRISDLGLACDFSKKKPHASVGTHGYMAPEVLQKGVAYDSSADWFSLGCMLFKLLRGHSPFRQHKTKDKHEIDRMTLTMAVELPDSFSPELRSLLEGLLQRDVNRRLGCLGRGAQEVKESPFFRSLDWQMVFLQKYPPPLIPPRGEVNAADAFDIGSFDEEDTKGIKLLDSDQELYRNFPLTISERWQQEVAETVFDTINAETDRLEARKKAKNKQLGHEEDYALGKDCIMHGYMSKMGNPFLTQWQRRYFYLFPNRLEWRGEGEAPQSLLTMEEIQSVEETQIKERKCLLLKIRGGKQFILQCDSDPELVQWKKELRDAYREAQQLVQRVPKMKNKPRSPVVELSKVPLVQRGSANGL

[6] = biological target: T3, Small ubiquitin-related modifier 1 (Homo sapiens, UniProt P63165); assay: SUMO1 protein interaction blockers, potency – biochemical, fluorescence polarization, uHTS hits, dose response (AID 624382); assay type: functional; conditions: read-out: IC50_Mean
T3 sequence (P63165 whole entry): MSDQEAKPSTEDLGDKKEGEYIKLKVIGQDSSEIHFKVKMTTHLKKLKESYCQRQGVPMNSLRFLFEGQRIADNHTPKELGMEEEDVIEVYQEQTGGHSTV

[7] = biological target: T3, Small ubiquitin-related modifier 1; assay: SUMO1 protein-protein binding blockers, potency – biochemical, FRET, dose response (AID 624383); assay type: functional; conditions: read-out: IC50_Mean

SMILES: CC(C)c1ccc(C(NC(=O)C2CCCCC2)c2cc([N+](=O)[O-])c3cccnc3c2O)cc1 (stereo not given)
IC50 (HEK293 [1]): 3.96 µM (active)
IC50 (Jurkat): 76.4 µM (inactive)
IC50 (HEK293 [2]): 11.6 µM (active)

IC50 (Hexokinase-1): > 80 µM (inactive)
IC50 (Hexokinase HKDC1): > 80 µM (inactive)
SMILES: O=c1c2cc(Cl)ccc2nc(/C=C/c2cccnc2)n1Cc1ccccc1

SMILES: CCOc1ccc(NC(=O)CCS(=O)(=O)c2ccc(Br)cc2)cc1
IC50 [3]: 13.6 µM (not active)
IC50 [4]: 8.87 µM (active)
EC50 [5]: 277 nM (inactive)
IC50 [6]: > 66.6 µM (inactive)
IC50 [7]: 12.8 µM (active)
